{"source": "patent US20200368198A1", "about": "“METHODS FOR INCREASING FERTILITY” (NEWSOUTH INNOVATIONS PTY LIMITED, priority 2017, published 2020)", "key": {"oocytes [1]": {"system": "oocytes", "assay": "Meiotic progression (GVBD, PBE) of harvested oocytes, doxorubicin with or without NMN", "assay_type": "in vivo, mice", "conditions": "doxorubicin and/or NMN", "description": "Once harvested from ovaries, oocytes were stored in IBMX media to prevent progression into meiosis."}, "[2]": {"system": "wild-type and NMNAT1-Tg female mice", "assay": "Oocyte yield following doxorubicin in wild-type or NMNAT1-Tg mice", "assay_type": "in vivo", "conditions": "10 mg/kg i.p., two months later, PMSG, per mouse", "experimental": "As in Example 2, 7 week-old female wild-type (“WT”) control or their littermates overexpressing NMNAT1 (“NMNAT1-Tg”) were treated with doxorubicin (10 mg/kg, i.p. injection). […] Two months later, animals were super-ovulated with PMSG, euthanased, and ovaries punctured to release MI oocytes, which were counted (FIG. 18 and Table 9)."}, "C57BL6 female mice [3]": {"system": "C57BL6 female mice", "assay": "Cumulus oocyte complex yield after PMSG superovulation, doxorubicin with or without NMN", "assay_type": "in vivo", "conditions": "per mouse, single dose doxorubicin 10 mg/kg i.p. and/or NMN 2 g/L drinking water, 2 months post doxorubicin", "experimental": "To assess oocyte yield, and mice were hormonally stimulated to superovulated by intraperitoneal injection with 7.5 IU/mL of Pregnant Mare's Serum Gonadotropin (PMSG) (Folligon; Intervet, Boxmeer, Holland) to stimulate follicular growth. After 44-46 hours, ovaries were collected in HEPES-buffered minimum essential medium (aMEM; […] Sigma Aldrich, St. Louis, Mo.) and 100 μM IBMX (Sigma Aldrich). […] NMN was delivered through addition to drinking water at 2 g/L, for a final dose of approximately 165 mg/kg. Administration of NMN began one day prior to doxorubicin administration. […] Ovaries were then punctured to release MI oocytes. In a separate cohort of animals, the same experiment was repeated using animals treated with the platinum based chemotherapy drug cisplatin. In FIG. 6 and Table 1, numbers of cumulus oocyte complexes are listed."}, "C57BL6 females [4]": {"system": "C57BL6 females", "assay": "Reversal design: primordial follicle counts in ovarian histology sections", "assay_type": "in vivo, mice", "conditions": "doxorubicin 10 mg/kg i.p., NMN in drinking water started four weeks later for 4 weeks; per mouse", "description": "Ovaries were dissected from freshly euthanased animals, and preserved in 10% neutral buffered formalin for 24 hr, followed by 70% ethanol, until embedding in paraffin blocks. Blocks were sectioned on a microtome and subjected to haematoxylin and eosin (H&E) staining. Primordial follicles were manually counted by a blinded investigator.\nNext, we decided to investigate whether NMN treatment delivered some time following chemotherapy treatment could actively reverse chemotherapy induced infertility. […] Four weeks later, they received NMN in their drinking water, for another 4 weeks, prior to being euthanased for either oocyte studies or ovarian histological analysis. The rationale of this experimental design is to investigate whether NMN has the ability to induce regeneration of the ovary. According to the standard dogma of reproductive biology, mammals are born with a set number of follicles which are slowly released as oocytes over the course of a lifetime, with the ovaries incapable of regenerating new follicles."}, "C57BL6 female mice [5]": {"system": "C57BL6 female mice", "assay": "Mating trial after doxorubicin with or without NMN co-treatment", "assay_type": "in vivo", "conditions": "for Number of mating rounds required to achieve pregnancy: the values are: cumulative % of females pregnant by round", "experimental": "Following oocyte counting and analysis of oocyte meiotic progression, as well as a separate cohort of animals for histological ovarian analysis, a separate cohort of animals were treated as indicated, and mated with stud males of proven track record, to assess the ability of animals to deliver live births following chemotherapy treatment in the presence of absence of NMN co-treatment."}, "NAMPT": {"biological_target": "NAMPT (Homo sapiens, UniProt P43490)", "sequence (P43490 whole entry, species assumed)": "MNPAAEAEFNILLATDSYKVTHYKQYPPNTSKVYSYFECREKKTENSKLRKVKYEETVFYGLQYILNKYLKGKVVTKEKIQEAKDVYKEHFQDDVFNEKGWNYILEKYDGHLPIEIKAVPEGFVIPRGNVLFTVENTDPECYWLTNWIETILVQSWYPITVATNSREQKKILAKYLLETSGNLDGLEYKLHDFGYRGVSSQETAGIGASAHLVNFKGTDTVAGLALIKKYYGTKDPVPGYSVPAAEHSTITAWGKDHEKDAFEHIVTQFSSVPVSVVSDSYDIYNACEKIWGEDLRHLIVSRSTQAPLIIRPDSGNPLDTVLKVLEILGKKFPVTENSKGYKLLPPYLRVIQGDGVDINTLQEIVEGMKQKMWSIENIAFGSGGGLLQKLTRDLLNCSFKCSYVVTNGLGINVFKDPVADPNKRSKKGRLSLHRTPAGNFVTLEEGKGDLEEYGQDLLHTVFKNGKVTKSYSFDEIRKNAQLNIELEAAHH", "conditions": "in vitro; cited from earlier work"}, "CD38": {"biological_target": "T1, CD38 (Homo sapiens, UniProt P28907)", "T1 sequence (P28907 1-300)": "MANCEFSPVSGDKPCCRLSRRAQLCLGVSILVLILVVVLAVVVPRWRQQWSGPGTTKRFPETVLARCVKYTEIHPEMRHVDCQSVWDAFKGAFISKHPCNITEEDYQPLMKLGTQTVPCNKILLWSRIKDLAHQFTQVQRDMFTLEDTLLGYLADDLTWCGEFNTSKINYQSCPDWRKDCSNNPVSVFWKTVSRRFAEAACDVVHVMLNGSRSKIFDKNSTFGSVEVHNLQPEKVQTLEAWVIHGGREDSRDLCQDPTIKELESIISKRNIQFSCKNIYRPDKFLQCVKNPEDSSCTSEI", "conditions": "in vitro; cited from earlier work"}, "C57BL6 females [6]": {"system": "C57BL6 females", "assay": "Reversal design: oocyte yield, cisplatin followed by NMN 4 weeks later", "assay_type": "in vivo, mice", "conditions": "cisplatin 5 mg/kg i.p., per mouse", "experimental": "(§1) To assess oocyte yield, and mice were hormonally stimulated to superovulated by intraperitoneal injection with 7.5 IU/mL of Pregnant Mare's Serum Gonadotropin (PMSG) (Folligon; Intervet, Boxmeer, Holland) to stimulate follicular growth. After 44-46 hours, ovaries were collected in HEPES-buffered minimum essential medium (aMEM; Gibco Life Technologies, Grand Island, N.Y.) supplemented with 50 µM of 3-isobuty-1-methylxanthine (IBMX) (Sigma aldrich, NSW, AU) (M2 medium) to maintain meitotic arrest at germinal vesicle stage. Cumulus oocyte complexes (COCs) were isolated from preovulatory follicles using a 27-gauge needle and collected using flame-pulled borosilicate Pasteur pipettes in M2 medium supplemented with 3 mg/ml bovine serum albumin (BSA; Sigma Aldrich, St. Louis, Mo.) and 100 μM IBMX (Sigma Aldrich). Cumulus oocyte complexes (COCs) were mechanically denuded of cumulus cells by pipetting, and the denuded oocytes were transferred to another dish containing a drop of fresh M2-medium plus IBMX on heat block with 37° C. with lid to protect oocytes from light.\nNext, we decided to investigate whether NMN treatment delivered some time following chemotherapy treatment could actively reverse chemotherapy induced infertility. […]"}, "oocytes [7]": {"system": "oocytes", "assay": "Meiotic progression (GVBD, PBE) of harvested oocytes, cisplatin with or without NMN", "assay_type": "in vivo, mice", "conditions": "cisplatin and/or NMN", "experimental": "Once harvested from ovaries, oocytes were stored in IBMX media to prevent progression into meiosis. Once released from IBMX, meiotic progression was assessed by the proportions of oocytes achieving germinal vesicle breakdown (GVBD) for meiosis I, and polar body extrusion (PBE) for meiosis II, with results shown in FIGS. 7 and 8 and Tables 2 and 3.\nAgain, as in Example 2 above, the oocytes which were harvested from these studies were allowed to progress down meiosis, in order to assess meiotic progression rates (FIGS. 16 and 17 and Table 7 and 8)."}, "C57BL6 female mice [8]": {"system": "C57BL6 female mice", "assay": "Cumulus oocyte complex yield after PMSG, cisplatin with or without NMN", "assay_type": "in vivo", "conditions": "per mouse, single dose cisplatin 5 mg/kg i.p. and/or NMN 2 g/L drinking water, two months later", "experimental": "as §1, with “light. […]” for “light.”"}, "[9]": {"biological_target": "NADH:quinone oxidoreductase (NQ01) (Homo sapiens, UniProt P15559)", "sequence (P15559 whole entry)": "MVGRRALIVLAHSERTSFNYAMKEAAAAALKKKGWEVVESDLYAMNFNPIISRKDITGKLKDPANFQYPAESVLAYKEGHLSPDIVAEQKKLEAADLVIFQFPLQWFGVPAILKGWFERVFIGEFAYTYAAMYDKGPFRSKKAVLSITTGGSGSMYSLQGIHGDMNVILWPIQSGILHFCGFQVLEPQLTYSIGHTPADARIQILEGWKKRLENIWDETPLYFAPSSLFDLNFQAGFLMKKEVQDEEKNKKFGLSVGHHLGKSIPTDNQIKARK", "conditions": "cited from earlier work"}}, "note": "Values joined by “and” are separate entries in the source; they are usually repeats but may differ in a detail not shown here. Equal values may be shown once.", "data": [{"smiles": "COc1cccc2c1C(=O)c1c(O)c3c(c(O)c1C2=O)C[C@@](O)(C(=O)CO)C[C@@H]3O[C@H]1C[C@H](N)[C@H](O)[C@H](C)O1", "note": "[Dox, doxorubicin]", "values": [{"measurement": "Proportion of harvested oocytes achieving germinal vesicle breakdown", "setting": "oocytes [1]; 1 h after release from IBMX", "value": "19 % of total"}, {"measurement": "Proportion of harvested oocytes achieving germinal vesicle breakdown", "setting": "oocytes [1]; 2 h after release from IBMX", "value": "92 % of total"}, {"measurement": "Proportions of oocytes achieving polar body extrusion", "setting": "oocytes [1]; 14 hr following GVBD", "value": 21}, {"measurement": "Proportions of oocytes achieving polar body extrusion", "setting": "oocytes [1]; 16 hr following GVBD", "value": 52}, {"measurement": "Proportions of oocytes achieving polar body extrusion", "setting": "oocytes [1]; 20 hr following GVBD", "value": 81}, {"measurement": "Oocyte yield following doxorubicin treatment", "setting": "[2]; NMNAT1-Tg mice", "value": "13 (2×) and 12 and 11 and 15 and 10 (2×) and 18"}, {"measurement": "Oocyte yield following doxorubicin treatment", "setting": "[2]; wild-type mice", "value": "1 (2×) and 4 (2×) and 2 and 7 and 9 (2×) and 3"}, {"measurement": "Numbers of cumulus oocyte complexes released from mice", "setting": "C57BL6 female mice [3]", "value": "1 and 8 and 9 and 3 and 6 and 7 and 5"}, {"measurement": "Primordial follicle numbers in ovarian histology sections", "setting": "C57BL6 females [4]", "value": "34 and 50 and 49 and 41"}, {"measurement": "Number of mating rounds required to achieve pregnancy", "setting": "C57BL6 female mice [5]; Round 0", "value": 0, "unit": "%"}, {"measurement": "Number of mating rounds required to achieve pregnancy", "setting": "C57BL6 female mice [5]; Round 1", "value": 60, "unit": "%"}, {"measurement": "Number of mating rounds required to achieve pregnancy", "setting": "C57BL6 female mice [5]; Round 2", "value": 90, "unit": "%"}, {"measurement": "Number of mating rounds required to achieve pregnancy", "setting": "C57BL6 female mice [5]; Round 3", "value": 90, "unit": "%"}, {"measurement": "Number of live pups born per litter", "setting": "C57BL6 female mice [5]; per litter, female C57BL6 mice treated with doxorubicin and/or NMN, mated", "value": "strong reduction"}]}, {"smiles": "OC(CNc1ccccc1)Cn1c2ccc(Br)cc2c2cc(Br)ccc21", "note": "(stereo not shown) [P7C3]", "values": [{"measurement": "Effect on NAMPT activity", "setting": "NAMPT", "value": "enhances activity of NAMPT in vitro"}]}, {"smiles": "O=c1cc(-c2ccc(O)cc2)oc2cc(O)cc(O)c12", "note": "[apigenin, 5,7-dihydroxy-2-(4-hydroxyphenyl)-4H-1-benzopyran-4-one]", "values": [{"measurement": "Inhibition of CD38 activity", "setting": "CD38", "value": "inhibitors of CD38 activity in vitro"}]}, {"smiles": "N.N.[Cl][Pt][Cl]", "note": "[cisplatin]", "values": [{"measurement": "Oocyte yield", "setting": "C57BL6 females [6]", "value": "6 and 5 (2×) and 2 and 4"}, {"measurement": "Proportion of harvested oocytes achieving germinal vesicle breakdown", "setting": "oocytes [7]; 1 h after release from IBMX", "value": "43 % of total"}, {"measurement": "Proportion of harvested oocytes achieving germinal vesicle breakdown", "setting": "oocytes [7]; 2 h after release from IBMX", "value": "100 % of total"}, {"measurement": "Proportion of harvested oocytes achieving polar body extrusion", "setting": "oocytes [7]; 14 hr following completion of GVBD", "value": "40 % of total"}, {"measurement": "Proportion of harvested oocytes achieving polar body extrusion", "setting": "oocytes [7]; 16 hr following completion of GVBD", "value": "70 % of total"}, {"measurement": "Proportion of harvested oocytes achieving polar body extrusion", "setting": "oocytes [7]; 20 hr following completion of GVBD", "value": "85 % of total"}, {"measurement": "Numbers of cumulus oocyte complexes released from mice", "setting": "C57BL6 female mice [8]", "value": "reduces oocyte yield and 10 and 5 and 6 and 0 and 4 and 9"}]}, {"smiles": "O=c1c(O)c(-c2ccc(O)c(O)c2)oc2cc(O)cc(O)c12", "note": "[quercetin, 2-(3,4-dihydroxyphenyl)-3,5,7-trihydroxy-4H-chromen-4-one]", "values": [{"measurement": "Inhibition of CD38 activity", "setting": "CD38", "value": "inhibitors of CD38 activity in vitro"}]}, {"smiles": "CC1(C)CCC2=C(O1)c1ccccc1C(=O)C2=O", "note": "[β-lapachone, 3,4-dihydro-2,2-dimethyl-2H-napthol[1,2-b]pyran-5,6-dione]", "values": [{"measurement": "Effect on NQ01", "setting": "[9]", "value": "activates the enzyme NADH:quinone oxidoreductase (NQ01)"}]}]}
